Entries after “also recorded” stand apart in the source; their conditions may differ.
Assays:
[1] = biological target: T1, hCatK (Homo sapiens, UniProt P43235); assay: In vitro inhibition of purified human Cathepsin K (fluorogenic substrate Z-FR-AMC); type: biochemical; details: for IC50: purified human Cathepsin, 30 min incubation with inhibitor, mean ± SD, triplicate; for selectivity for CatK over structurally related human Cathepsins: in words, from Table 2
T1 sequence (P43235 115-329): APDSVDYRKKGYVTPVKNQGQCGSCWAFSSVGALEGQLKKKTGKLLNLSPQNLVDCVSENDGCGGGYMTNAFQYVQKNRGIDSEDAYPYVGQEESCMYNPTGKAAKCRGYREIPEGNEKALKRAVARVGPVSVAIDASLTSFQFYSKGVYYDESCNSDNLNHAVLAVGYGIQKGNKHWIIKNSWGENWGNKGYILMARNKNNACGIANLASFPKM
Procedure: (§1) Cathepsin (e.g. Cathepsin K/L/V/S/B), in particular purified human Cathepsin, was diluted in freshly prepared reaction buffer consisting of 50 mM MES pH 5.5, 25 mM EDTA and 2.5 mM DTT. 0.05% Tween20 (v/v) may be added to the reaction buffer of the Cathepsin K.
(§2) Activity assays may be conducted in a suitable manner. In the experiments described herein, the assays were typically conducted in Corning 3820 Low Volume 384 Well Assay Plate with a final assay volume of 20 μL. Plates were shaken at 600 rpm for 1 minute and centrifuged at 1000 rpm for 1 minute prior to incubation. Cathepsin activity was quantified using synthetic fluorogenic peptide substrate Z-FR-AMC (Cath K, L, V), Z-RR-AMC (Cath B) or Z-FVR-AMC (Cath S). Fluorescence intensity (λex=350 nm, λem=440 nm) was measured every 2 minutes in arbitrary units (A.U.) on a CLARIOstar (BMG Labtech) microplate reader and values were converted to product formation [AMC]. […] Measurements were performed in triplicate.
(§3) Inhibitors (200 nL, 100× final concentration in DMSO) were diluted in reaction buffer (10 μL). Purified human Cathepsin (5 μL, 4× final concentration) was added and the reaction mixture was incubated for 30 min at room temperature. Fluorogenic substrate (5 μL, 4× final concentration) was added and fluorescence intensity was measured every 2 minutes for 30-90 minutes.
(§4) The potency of the compounds as CatK inhibitors was assessed in an in vitro inhibition assay on purified human CatK (Table 2). Cathepsin was incubated with inhibitor, and the hydrolysis of substrate was initiated by addition of substrate.

[2] = biological target: hCatL (Homo sapiens, UniProt P07711); assay: In vitro inhibition of purified human Cathepsin L (Z-FR-AMC); type: biochemical; details: 30 min incubation with inhibitor, mean ± SD, triplicate
Sequence of hCatL (P07711 114-333): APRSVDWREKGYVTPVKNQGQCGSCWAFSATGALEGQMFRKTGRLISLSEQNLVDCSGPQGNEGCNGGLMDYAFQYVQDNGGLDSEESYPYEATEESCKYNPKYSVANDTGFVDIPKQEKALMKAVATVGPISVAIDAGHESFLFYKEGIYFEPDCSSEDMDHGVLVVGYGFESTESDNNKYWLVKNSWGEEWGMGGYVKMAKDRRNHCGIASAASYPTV
Procedure: as §1
as §2, with “In the experiments described herein, the assays were typically conducted in Corning 3820 Low Volume 384 Well Assay Plate with a final assay volume of 20 μL.” left out
as §3, §4

[3] = biological target: hCatV (Homo sapiens, UniProt O60911); assay: In vitro inhibition of purified human Cathepsin V (Z-FR-AMC); type: biochemical; details: 30 min incubation with inhibitor, mean ± SD, triplicate
Sequence of hCatV (O60911 114-334): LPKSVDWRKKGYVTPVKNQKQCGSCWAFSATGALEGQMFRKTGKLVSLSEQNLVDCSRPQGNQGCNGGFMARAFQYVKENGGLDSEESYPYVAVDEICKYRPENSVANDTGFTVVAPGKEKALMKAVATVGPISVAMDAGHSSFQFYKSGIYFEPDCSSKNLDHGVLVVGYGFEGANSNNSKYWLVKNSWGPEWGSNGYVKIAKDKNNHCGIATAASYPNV
Procedure: as §1
as §2, with “In the experiments described herein, the assays were typically conducted in Corning 3820 Low Volume 384 Well Assay Plate with a final assay volume of 20 μL.” left out
as §3, §4

[4] = biological target: T2, Cathepsin K (Homo sapiens, UniProt P43235); assay: LC-MS of intact CatK and CatK-inhibitor complexes; type: binding; details: for formation of covalent CatK-inhibitor complex: 6 h incubation, intact protein LC-MS; for Measured mass complex: CatK 3 μM, inhibitor 100 μM, 37° C., 6 h, deconvoluted ESI mass
T2 sequence (P43235 115-329): T1 sequence (P43235 115-329)
Procedure: The masses were determined from deconvoluted electrospray ionization mass spectra of CatK complexes. FIG. 4A to FIG. 4E each provide the result for a sample. In each of these FIGS. 4A to 4E the first panel provides the UPLC chromatogram, the second panel provides the electrospray ionization mass spectrum, and the third panel provides the corresponding deconvoluted electrospray ionization mass spectrum (average isotopes) with an indication of the measured mass of the predominant species. FIG. 4A provides the results obtained for intact CatK. FIG. 4B provides the results obtained for CatK.
Cathepsin K (3 μM) in reaction buffer ([…]) was incubated with inhibitor (100 μM) at 37° C. for 6 hours prior to analysis. 1 μL injections of the sample were made onto a XEVO-G2XSQTOF#YEA928 UPLC-MS system with a Waters Acquity CM detector. Chromatographic separation was carried out on a ACQUITY UPLC® Protein BEH C4 Column over a 12 minute gradient elution of 2% to 100% acetonitrile in water (0.1% formic acid) at a flow rate of 0.500 mL/min. For the first 4 minutes the flow was diverted to the waste to avoid contamination of the MS with high concentrations of buffer components. After 4 minutes, the elution flow was ionized with an ESI ionization source and measured on a XEVO-G2XSQTOF. The results were analyzed using MassLynx V4.1. The total mass of the complex was obtained by deconvolution of electrospray ionization mass spectrum envelope (average isotopes) with the MaxEnt1 function.
Cathepsin K was incubated with ODN, 4, 5 or 6 for 6 h to allow full covalent bond formation and submitted for measurement without any digestion steps, according to the method for LC-MS for intact CatK and CatK-inhibitor complexes described in the assays section above.

[5] = tested on: human osteoclasts (OCs); assay: Inhibition of bone resorption by human osteoclasts cultured on cortical bone slices; type: cell-based; details: for effective dose / concentration inhibiting bone resorption: human OCs on cortical bone slices, staining at day 21
Procedure: The inhibitory properties on CatK of inhibitors of this invention were tested in a biologically relevant setting: inhibition of bone resorption by osteoclasts (OCs). OCs are the cells that degrade the bone matrix by secretion of acid and CatK into the resorption lacunae, resulting in the cleavage of collagen type I. Inhibition of osteoclastic CatK was studied by culturing OCs on cortical bone slices in presence of inhibitors of this invention (FIG. 5). […] OCs predominantly form deep trenches (paths) while OCs lacking CatK form small pits (circular dots). B) CD14+ monocytes on bone slices were treated with MCSF (day 0) and RANKL (day 3) to stimulate differentiation to mature OCs. Medium containing either an inhibitor or DMSO was refreshed on day 7, 10, 13 and 16. At day 21, OCs were washed away and lysed, and bone slices were stained to visualize bone resorption. C) Bone resorption visualized by staining of resorption pits with Coomassie Brilliant Blue. More staining means more resorption pits, thus more bone resorption activity. Normal D) Schematic overview of pro-Cathepsin K activation. E) CatK activity and expression in OC lysates. […] Darker bands indicate more activity/expression of CatK.

IC50 [1] [nM] | IC50 [2] [nM] | IC50 [3] [nM] | Measured mass complex [4] | selectivity for CatK over structurally related human Cathepsins [1] | Structure (SMILES) | formation of covalent CatK-inhibitor complex [4] | bone resorption staining of bone slices ([5]; 3 nM) | bone resorption staining of bone slices ([5]; 15 nM) | effective dose / concentration inhibiting bone resorption [5] | inhibition of bone resorption ([5]; all tested concentrations)
0.56 ± 0.002 | 5350 ± 596 | 605 ± 40.1 | 24244 | – | CC(C)(F)C[C@H](N[C@@H](c1ccc(-c2ccc(S(C)(=O)=O)cc2)cc1)C(F)(F)F)C(=O)NC1(C#N)CC1 [ODN, (S)—N-(1-cyanocyclopropyl)-4-fluoro-4-methyl-2-(((S)-2,2,2-trifluoro-1-(4′-(methylsulfonyl)-[1,1′-biphenyl]-4-yl)ethyl)amino)pentanamide, reference compound] | covalent complex formed | formation of deep trenches | formation of shallow pits | around 15 nM | –
293 ± 8.73 | > 100000 | 23800 ± 1410 | 24217 | conserved | C#CCNC(=O)[C@H](CC(C)(C)F)N[C@@H](c1ccc(-c2ccc(S(C)(=O)=O)cc2)cc1)C(F)(F)F [Compound 4, (S)-4-fluoro-4-methyl-N-(prop-2-yn-1-yl)-2-(((S)-2,2,2-trifluoro-1-(4′-(methylsulfonyl)-[1,1′-biphenyl]-4-yl)ethyl)amino)pentanamide] | formation of a covalent hCatK—inhibitor complex; also recorded: covalent complex formed | – | – | ≥ 80 nM | –
346 ± 11.6 | > 100000 | 45900 ± 2330 | 24231 | conserved | C#CC(C)NC(=O)[C@H](CC(C)(C)F)N[C@@H](c1ccc(-c2ccc(S(C)(=O)=O)cc2)cc1)C(F)(F)F (mixture of isomers) [Compound 5, (S)—N—((R/S)-but-3-yn-2-yl)-4-fluoro-4-methyl-2-(((S)-2,2,2-trifluoro-1-(4′-(methylsulfonyl)-[1,1′-biphenyl]-4-yl)ethyl)amino)pentanamide] | formation of a covalent hCatK—inhibitor complex; also recorded: covalent complex formed | – | – | – | non-conclusive

Reference: US12371400B2, “Cathepsin inhibitors” (ACADEMISCH ZIEKENHUIS LEIDEN (H.O.D.N. LUMC), priority 2017, dated 2025)
